# Results published in patent publication US6362369B1, “Phthalic acid diamide derivatives fluorine-containing aniline compounds as starting material, agricultural and horticultural insecticides, and a method for application of the insecticides” (Nihon Nohyaku Co., Ltd., priority 1997, dated 2002).
# Legend:
# Assay type in all cases: in vivo
# [1] = tested on: rice leafroller (Cnaphalocrocis medinalis); assay: Insecticidal effect on rice leafroller (Test Example 3); conditions: 500 ppm, rice lamina dip, third-instar larvae, four days after inoculation, 25° C., humidity 70%
# How it was run: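 Groups of 10 third-instar larvae, in triplicate, are placed on air-dried lamina resting on wet filter paper. Incubation runs four days at 25° C with 70% humidity before survivors and dead are tallied.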
# [2] = tested on: diamondback moth (Plutella xylostella); assay: Insecticidal effect on diamondback moth (Test Example 1); conditions: mortality judged according to the criterion shown in Test Example 1
# How it was run: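 Read-out was mortality from hatched-insect counts taken 6 days after the egg-bearing cabbage seedling was immersed, graded by set criteria. Seedlings were air-dried and kept at 25° C after treatment. Groups of 10 insects, in triplicate.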
# [3] = tested on: common cutworm (Spodoptera Litura); assay: Insecticidal effect on common cutworm (Test Example 2); conditions: 500 ppm, cabbage leaf dip, second-instar larvae, eight days after inoculation, 25° C.
# How it was run: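 Second-instar larvae placed in 9 cm Petri dishes with air-dried treated material, held at 25 °C. Dead and live insects counted 8 days after inoculation; mortality calculated and scored against a set criterion. Triplicate groups of 10 insects.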
Structure (SMILES),"Insecticidal effect on rice leafroller (Test Example 3), judged grade [1]","Insecticidal effect on diamondback moth (Test Example 1), judged grade [2]","Insecticidal effect on common cutworm (Test Example 2), judged grade [3]"
Cc1cc(OC(F)(F)C(F)(F)Br)ccc1NC(=O)c1cccc(F)c1C(=O)NC(C)C [compound 503],A (100),A (100),B (99-90)
CC(C)NC(=O)c1c(F)cccc1C(=O)Nc1ccc(C(F)(F)F)cc1Cl [compound 504],A (100),A (100),A (100)
CC(C)NC(=O)c1c(F)cccc1C(=O)Nc1ccc(C(F)(F)C(F)(F)C(F)(F)F)cc1Cl [compound 505],A (100),A (100),A (100)
CC(C)NC(=O)c1c(F)cccc1C(=O)Nc1ccc(C(F)(C(F)(F)F)C(F)(F)F)cc1Cl [compound 507],A (100),A (100),B (99-90)
CC(C)NC(=O)c1c(F)cccc1C(=O)Nc1ccc(OC(F)(F)F)cc1Cl [compound 508],A (100),A (100),B (99-90)
CC(C)NC(=O)c1c(F)cccc1C(=O)Nc1ccc(OC(F)(F)F)cc1Br [compound 509],A (100),A (100),A (100)
Cc1cc(OC(F)(F)F)ccc1NC(=O)c1cccc(F)c1C(=O)NC(C)C [compound 510],A (100),A (100),B (99-90)
Cc1cc(OC(F)(F)Br)ccc1NC(=O)c1cccc(F)c1C(=O)NC(C)C [compound 511],A (100),A (100),A (100)
Cc1cc(OC(F)(F)C(F)F)ccc1NC(=O)c1cccc(F)c1C(=O)NC(C)C [compound 512],A (100),A (100),A (100)
Cc1cc(OC(F)(F)C(F)Cl)ccc1NC(=O)c1cccc(F)c1C(=O)NC(C)C (stereo not drawn) [compound 513],A (100),A (100),A (100)
Cc1cc(OC(F)(F)C(F)C(F)(F)F)ccc1NC(=O)c1cccc(F)c1C(=O)NC(C)C (stereo not drawn) [compound 514],A (100),A (100),A (100)
Cc1cc(OC(F)(F)C(F)(Br)C(F)(F)F)ccc1NC(=O)c1cccc(F)c1C(=O)NC(C)C (stereo not drawn) [compound 516],A (100),A (100),A (100)
Cc1cc(OC(F)F)c(Cl)cc1NC(=O)c1cccc(F)c1C(=O)NC(C)C [compound 517],A (100),A (100),A (100)
Cc1cc(Oc2cccc(C(F)(F)F)c2)ccc1NC(=O)c1cccc(F)c1C(=O)NC(C)C [compound 519],A (100),A (100),A (100)
Cc1cc(Oc2ccc(C(F)(F)F)cc2Cl)ccc1NC(=O)c1cccc(F)c1C(=O)NC(C)C [compound 521],A (100),A (100),A (100)
Cc1cc(Sc2ccc(Cl)cc2)ccc1NC(=O)c1cccc(F)c1C(=O)NC(C)C [compound 522],A (100),A (100),D (79-50)
Cc1cc(Oc2ccc(C(F)(F)F)cn2)ccc1NC(=O)c1cccc(F)c1C(=O)NC(C)C [compound 523],A (100),A (100),A (100)

Structure (SMILES),"Insecticidal effect on rice leafroller (Test Example 3), judged grade [1]","Insecticidal effect on diamondback moth (Test Example 1), judged grade [2]","Insecticidal effect on common cutworm (Test Example 2), judged grade [3]"
Cc1cc(Oc2ncc(C(F)(F)F)cc2Cl)ccc1NC(=O)c1cccc(F)c1C(=O)NC(C)C [compound 524],A (100),A (100),A (100)
CC(C)NC(=O)c1c(F)cccc1C(=O)Nc1ccc(OC(F)F)cc1C(F)(F)F [compound 527],A (100),A (100),A (100)
Cc1cc(Cl)ccc1NC(=O)c1ccc(F)cc1C(=O)NC(C)C [compound 529],A (100),A (100),D (79-50)
Cc1cc(C(F)(F)C(F)(F)C(F)(F)F)ccc1NC(=O)c1cc(F)ccc1C(=O)NC(C)C [compound 533],A (100),A (100),A (100)
CC(C)NC(=O)c1cccc(F)c1C(=O)Nc1ccc(OC(F)(F)C(F)OC(F)(F)C(F)(F)C(F)(F)F)cc1 (stereo not drawn) [compound 538],A (100),A (100),A (100)
Cc1cc(I)ccc1NC(=O)c1c(F)cccc1C(=O)NC(C)C [compound 547],D (79-50),A (100),A (100)
Cc1c(F)cccc1NC(=O)c1c(F)cccc1C(=O)NC(C)C [compound 548],A (100),A (100),A (100)
Cc1ccc(F)cc1NC(=O)c1c(F)cccc1C(=O)NC(C)C [compound 549],D (79-50),A (100),A (100)
CC(C)NC(=O)c1cccc(F)c1C(=O)Nc1ccc(C(F)(F)F)cc1Cl [compound 550],A (100),A (100),C (89-80)
Cc1cc(OC(F)(F)C(F)(Cl)Cl)ccc1NC(=O)c1c(F)cccc1C(=O)NC(C)C [compound 553],A (100),A (100),C (89-80)
Cc1cc(C(F)(F)C(F)(F)C(F)(F)C(F)(F)F)ccc1NC(=O)c1c(F)cccc1C(=O)NC(C)C [compound 557],B (99-90),A (100),C (89-80)
Cc1c(NC(=O)c2c(F)cccc2C(=O)NC(C)C)cccc1OC(F)F [compound 558],A (100),A (100),A (100)
CC(C)NC(=O)c1cccc(F)c1C(=O)Nc1ccc(C(F)(C(F)(F)F)C(F)(F)F)cc1Cl [compound 561],A (100),A (100),C (89-80)
Cc1cc(OC(F)(F)C(F)Cl)ccc1NC(=O)c1c(F)cccc1C(=O)NC(C)C (stereo not drawn) [compound 567],D (79-50),A (100),D (79-50)
Cc1cc(OC(F)(F)C(F)C(F)(F)F)ccc1NC(=O)c1c(F)cccc1C(=O)NC(C)C (stereo not drawn) [compound 568],A (100),A (100),C (89-80)
Cc1cc(OC(F)(F)C(F)(Br)C(F)(F)F)ccc1NC(=O)c1c(F)cccc1C(=O)NC(C)C (stereo not drawn) [compound 569],A (100),A (100),A (100)
CC(C)NC(=O)c1cccc(F)c1C(=O)Nc1ccc(OC(F)F)cc1C(F)(F)F [compound 579],A (100),A (100),A (100)
